Reference: paper PMC6013238, “Development of novel NEMO-binding domain mimetics for inhibiting IKK/NF-κB activation” (PLoS Biology, 2018)
Several values for one entry are separate records, joined by “and”; a condition that tells them apart may be missing. Equal entries are not always repeated.

What was measured:
[1] = tested on: IL-6 production; experiment: Mouse IL-6 ELISA of supernatant of LPS-stimulated Raw 264.7 cells; type: cell-based; conditions: Fig 4D; IKKi VII 2 μM; LPS 1 μg/ml 24 h
Protocol: Fig 4 Modified lead NBD mimetics inhibit TNF-α- and LPS-induced NF-κB activation by disrupting the association between NEMO and IKKβ. (A) Structures of top NBD mimetics. (B) Measurement of NF-κB activation in response to TNF-α by using Dual-luciferase reporter assays. HEK293 cells cotransfected with NF-κB luciferase reporter and SV40-Renilla plasmids were pretreated with DMSO or listed small molecules at 0, 25, 50, 100, and 150 μM for 30 min, followed by the induction of TNF-α for 3 h. Data shown are representative of 2–3 independent experiments. […] Raw 264.7 cells were pretreated with indicated drugs for 30 min and then stimulated with 1 μg/ml of LPS for 2 h. Cells were then harvested for RNA extraction and qRT-PCR analysis. Drug concentrations used are as follows: IKKi VII (2 μM), 8K-NBD peptide (200 μM), SR12343 (50 μM), SR12460 (50 μM), SR12454 (50 μM), and SR11481 (50 μM). Data are representative of 2 independent experiments. […] Raw 264.7 cells pretreated with DMSO or drugs at indicated concentrations were exposed to 1 μg/ml of LPS for 24 h, and supernatant was collected for ELISA analysis of mouse IL-6. *P < 0.05; **P < 0.01. Underlying data can be found in S1 Data. HEK293, human embryonic kidney 293 cells; IKK, IκB kinase; IL-6, interleukin 6; LPS, lipopolysaccharide; NBD, NEMO-binding domain; n.d., nondetectable; NEMO, NF-κB essential modulator; NF-κB, nuclear factor κB; qRT-PCR, […] real-time polymerase chain reaction; TNF-α; tumor necrosis factor α. TEXT PRINTED IN THE PICTURE: (D) ikki VII: mIL-6 (ng/ml): n.d. | (D) SR12460: mIL-6 (ng/ml): n.d. (50μM) | (D) SR12454: mIL-6 (ng/ml): n.d. (50μM) DOUBTS OF THE COPYIST ABOUT THIS PICTURE: Panel D: the only printed results are the three "n.d." labels. They stand in place of bars and are assigned to ikki VII, SR12460 50μM and SR12454 50μM by their position on the axis. All other results are shown only as bars, with no printed numbers.
To confirm the qRT-PCR results, the levels of IL-6 production in Raw 264.7 cells activated by LPS were analyzed by ELISA.
Raw 264.7 cells were grown in 96-well plates and pretreated with vehicle, IKKi VII (2 μM), and small molecules (at indicated concentration) for 1 h, followed by the stimulation with 1 μg/ml of LPS. Supernatant was collected 24 h later for ELISA analysis. IL-6 concentration was measured using a mouse IL-6 ELISA kit (BD) according to the manufacturer’s instructions.

[2] = tested on: NF-κB target genes; experiment: qRT-PCR of NF-κB target genes in LPS-stimulated Raw 264.7 cells; type: cell-based, mouse; conditions: Fig 4C, LPS 1 μg/ml 2 h, IKKi VII 2 μM, 8K-NBD 200 μM, SR compounds 50 μM, relative to no LPS
[3] = tested on: NF-κB activation; experiment: NF-κB firefly luciferase reporter assay, TNF-α-stimulated stably transfected HEK293 cells; type: cell-based, human; conditions: TNF-α 10 ng/ml 3 h, vehicle = 100, single experiments; for NF-κB luciferase activity normalized to vehicle: Fig 2C, derivatives at 100 μM; for NF-κB luciferase activity normalized to untreated stimulated control: Fig 2A, 100 μM, 30 min pretreatment
Protocol: To determine whether the small molecules identified by the in silico screening inhibit NF-κB activation, a HEK293 cell line stably expressing a luciferase reporter driven by a synthetic, NF-κB-dependent promoter was utilized. To induce NF-κB activation, cells were treated with 10 ng/mL of TNF-α and harvested 3 h post treatment for analysis of luciferase activity. […] To determine whether ZINC12909780 inhibits NF-κB in a dose-dependent manner, concentrations were tested at 0, 6.25, 25, 50, and 100 μM.
Luciferase activity was normalized to untreated stimulated control cells. […] Cell viability was calculated by normalizing to untreated cells. […] Underlying data can be found in S1 Data.
HEK293 cells stably transfected with luciferase reporter plasmid driven by NF-κB were seeded in 96-well plates in triplicate and pretreated with DMSO or varying small molecules at indicated concentration for 30 min, followed by the stimulation of 10 ng/ml of TNF-α for 3 h. Cells were washed with PBS once and harvested in Passive Lysis Buffer (Promega, Madison, WI). Luciferase assay (Promega) was performed by using a luminometer according to the manufacturer’s instructions.

[4] = tested on: HEK293 cells; conditions: Fig 2D; 100 μM, 24 h
Protocol: (A) HEK293 cells stably expressing NF-κB luciferase reporter were pretreated with indicated small molecules at 100 μM for 30 min, followed by stimulation with TNF-α (10 ng/ml) for 3 h. Luciferase activity was normalized to untreated stimulated control cells. […] (B) The dose-dependent response of ZINC12909780 was tested by NF-κB luciferase assay in HEK293 cells. Three independent experiments were performed, and data shown represent mean +/− SD. […] (D) HEK293 cells were cultured in the presence of 100 μM of indicated derivatives for 24 h, and cell survival was determined by MTT assay. Cell viability was calculated by normalizing to untreated cells. (E) Dose-dependent inhibitory effects were determined for ZINC5 at 0, 25, 50, and 100 μM by using NF-κB luciferase assay. (F) HEK293 were cultivated in the presence of ZINC5 at listed concentrations for 24 h, and cell survival was assessed by MTT assay. Data represent the mean +/− SD from 4–5 independent experiments. *P < 0.05; **P < 0.01; ***P < 0.001. Underlying data can be found in S1 Data. HEK293, human embryonic kidney 293 cells; MTT, 3-(4,5-dimethylthiazol-2-yl)-2,5-dephenyltetrazolium bromide colormetric assay for assessing cell metabolic activity; NF-κB, nuclear factor κB; TNF-α; tumor necrosis factor α; SD, standard deviation.
HEK293 cells were grown in a 96-well plate at 3 × 10^4 cells/well in triplicate and treated with DMSO or listed small molecules at indicated concentrations for 24 h. Cell survival was determined by adding 20 μl of 5 mg/ml MTT (thiazolyl blue tetrazolium bromide) to each well, followed by incubation in 37 °C for 3 h. Media were removed, and purple formazan was dissolved in 100 uL of DMSO. Absorbance was measured at 590 nm on a microplate reader (PerkinElmer, Waltham, MA). Cell viability was calculated by normalizing values to untreated controls.

Compound | NF-κB luciferase activity normalized to vehicle [3] | Cell viability normalized to untreated cells (MTT) [4] | other results
O=C(c1ccc(Nc2nccc(-c3cc4ccccc4s3)n2)cc1)N1CCC(N2CCCC2)CC1 [IKKi VII, reference compound] | lowered NF-κB activity robustly |  | mIL-6 in supernatant (ELISA) [1]: 0 ng/mL; iNOS mRNA expression (qRT-PCR) [2]: failed to down-regulate iNOS expression; COX2 mRNA expression (qRT-PCR) ([2]; listed as ikki VII): 169.382 and 169.611 and 190.029; IL6 mRNA expression (qRT-PCR) ([2]; listed as ikki VII): 61.5373 and 59.8482 and 47.3662; IL-1b mRNA expression (qRT-PCR) ([2]; listed as ikki VII): 67.7567 and 72.7507 and 75.5037; TNFa mRNA expression (qRT-PCR) ([2]; listed as ikki VII): 61.1388 and 68.3653 and 68.6282; iNOS mRNA expression (qRT-PCR) ([2]; listed as ikki VII): 24.1042 and 20.2843 and 19.9052; ikBa mRNA expression (qRT-PCR) ([2]; listed as ikki VII): 8.329 and 8.125 and 9.136
O=C(COC(=O)c1ncc(Cl)c(Cl)c1Cl)Nc1ccc(Cl)cn1 [ZINC1] | lowered NF-κB activity robustly |  | 
O=C(COC(=O)c1nc(Cl)ccc1Cl)Nc1ncc(Cl)cc1Cl [ZINC2] | 87.9 and 94.94 and 107.72 and 95.11 and 110.04 |  | 
O=C(COC(=O)c1nc(Cl)ccc1Cl)Nc1ccc(Cl)cn1 [ZINC3] | 111.63 and 103.8 and 115.96 and 89.11 and 115.8 | 97 and 81 and 75 | 
O=C(COC(=O)c1ccc2ccccc2c1)Nc1ncc(C(F)(F)F)cc1Cl [ZINC4] | 99.2 and 99.51 and 98.62 and 84.84 and 111.34 | 62 and 80 and 74 and 70 | 
O=C(COC(=O)c1cccnc1Cl)Nc1ncc(Cl)cc1Cl [ZINC6] | 114.53 and 96.57 and 113.68 and 101.67 and 104.3 | 90 and 71 and 78 and 92 | 
O=C(COC(=O)c1c2ccccc2cc2ccccc12)Nc1ncc(C(F)(F)F)cc1Cl [ZINC7] | 99.14 and 98.45 and 107.93 and 94.89 | 73 and 51 and 70 and 69 | 
O=C(COC(=O)c1cccc2ccccc12)Nc1ncc(C(F)(F)F)cc1Cl [ZINC8] | 56.26 and 53.09 and 63.7 and 43.79 and 59.31 | 51 and 82 and 57 and 61 | NF-κB luciferase activity normalized to vehicle ([3]; listed as Zinc8): lowered NF-κB activity robustly
O=C(COC(=O)Cc1ccccc1)Nc1ncc(Cl)cc1Cl [ZINC9] | 67.06 and 59.84 and 88.3 and 70.04 and 84.32 | 92 and 86 and 88 | NF-κB luciferase activity normalized to vehicle ([3]; listed as Zinc9): lowered NF-κB activity robustly
O=C(COC(=O)c1ccccn1)Nc1ncc(C(F)(F)F)cc1Cl [ZINC10] | 108.77 and 101.36 and 116.46 and 94.96 and 126.1 | 89 and 65 and 84 and 79 | 
O=C(COC(=O)c1ccc(Cl)nc1)Nc1ncc(Cl)cc1Cl [ZINC11] | 90.11 and 74.66 and 111.57 and 92.82 and 119.55 | 77 and 62 and 78 and 72 | 
O=C(COC(=O)c1ccc(F)cc1F)Nc1ccc(Cl)cn1 [ZINC12] | 95.61 and 79.06 and 109.79 and 80.64 and 92.59 | 94 and 85 and 87 | 
NC(=O)COC(=O)c1cccnc1Nc1ccccc1F [ZINC13] | 100.33 and 91.05 and 121.31 and 95.5 and 122.97 | 82 and 81 and 84 and 90 | 
O=C(COC(=O)c1cccc(F)c1)Nc1ccc(Cl)cn1 [ZINC14] | 108.83 and 98.08 and 117.73 and 100.75 and 124.98 | 60 and 64 and 68 and 84 | 
O=C(COC(=O)c1ccc(F)cc1)Nc1ccc(Cl)cn1 [ZINC15] | 103.61 and 97.73 and 103.85 and 95.58 and 115.08 | 58 and 77 and 86 | 
O=C(NN=C1CCN(Cc2ccccc2)CC1)[C@H]1C[C@@H]1c1ccccc1 [ZINC05682974] |  |  | NF-κB luciferase activity normalized to untreated stimulated control [3]: remained unchanged; NF-κB luciferase activity normalized to untreated stimulated control ([3]; listed as ZINC05682947): 105.454 and 97.4199
